According to patent publication US4904657A, “4H-quinolizin-4-one compounds exhibiting therapeutic activities” (Kissei Pharmaceutical Co., Ltd., priority 1987, dated 1990):

Key:
[1] = system: IgG; experiment: IgG produced in in vitro culture of spleen cells from DNP-As immunized mice (ELISA); assay type: cell-based, BALB/c mice; conditions: Mus musculus, 96 h, spleen cell culture, 37° C., 4 days; for inhibition at 5 µg/mL: 5 μg/ml; for inhibition at 10 µg/mL: 10 μg/ml; for inhibition at 40 µg/mL: 40 μg/ml; for inhibition at 20 µg/mL: 20 μg/ml; for inhibition at 2.5 µg/mL: 2.5 μg/ml; for inhibition at 1 µg/mL: 1 μg/ml
Description: (§1) Determination of Igs Produced in In Vitro Culture
(§2) BALB/c mice were immunized intraperitoneally with 5 μg of DNP-As adsorbed on 4 mg aluminum hydroxide gel. Four weeks after the immunization, the spleens were excised from the mice and 5×10^7 spleen cells were transferred intravenously into the recipient mice which had been exposed to 600 rad of X-ray irradiation. Immediately after cell transfer, the recipients were then immunized intraperitoneally with 5 μg of DNP-As adsorbed on 4 mg aluminum hydroxide gel to induce adoptive secondary immune response. Further 4 weeks after the immunization of recipients, the spleens were excised from then and the spleen cell suspensions containing 5×10^6 cells/ml were cultured with or without a compound to be tested in 96-well micro-titer plates at 37° C. for 4 days. IgE and IgG secreted into the culture supernatant was each determined correspondingly by ELISA and the inhibitory effect was calculated according to the following equation. [formula]

[2] = system: IgE; experiment: IgE produced in in vitro culture of spleen cells from DNP-As immunized mice (ELISA); assay type: cell-based, BALB/c mice; conditions: Mus musculus, 96 h, spleen cell culture, 37° C., 4 days; for inhibition at 5 µg/mL: 5 μg/ml; for inhibition at 10 µg/mL: 10 μg/ml; for inhibition at 40 µg/mL: 40 μg/ml; for inhibition at 20 µg/mL: 20 μg/ml; for inhibition at 2.5 µg/mL: 2.5 μg/ml; for inhibition at 1 µg/mL: 1 μg/ml
Description: as §1, §2

CCOC(=O)c1c(-c2ccccc2)c(C#N)c(=O)n2ccccc12 [Compound S-1, 3-Cyano-1-ethoxycarbonyl-2-phenyl-4H-quinolizin-4-one]
inhibition at 5 µg/mL [1]: 1%
inhibition at 5 µg/mL [2]: 47%

CCOC(=O)c1c(-c2ccc(Br)cc2)c(C#N)c(=O)n2ccccc12 [Compound S-3, 2-(4-Bromophenyl)-3-cyano-ethoxycarbonyl-4H-quinolizin-4-one]
inhibition at 49 µg/mL ([1]; 49 μg/ml): 15%
inhibition at 49 µg/mL ([2]; 49 μg/ml): 34%

CCOC(=O)c1c(-c2ccc(OC)cc2)c(C#N)c(=O)n2ccccc12 [Compound S-6, 3-Cyano-1-ethoxycarbonyl-2-(4-methoxyphenyl)-4-quinolizin-4-one]
inhibition at 10 µg/mL [1]: 37%
inhibition at 10 µg/mL [2]: 65%

CCOC(=O)c1c(-c2ccc3c(c2)OCO3)c(C#N)c(=O)n2ccccc12 [Compound S-8, 3-Cyano-1-ethoxycarbonyl-2-(3,4-methylenedioxyphenyl)-4H-quinolizin-4-one]
inhibition at 40 µg/mL [1]: 5%
inhibition at 40 µg/mL [2]: 51%

CCOC(=O)c1c(-c2ccc(Cl)cc2Cl)c(C#N)c(=O)n2ccccc12 [Compound S-9, 3-Cyano-2-(2,4-dichlorophenyl)-1-ethoxycarbonyl-4H-quinolizin-4-one]
inhibition at 5 µg/mL [1]: 32%
inhibition at 5 µg/mL [2]: 64%

CCCOC(=O)c1c(-c2ccccc2)c(C#N)c(=O)n2ccccc12 [Compound S-10, 3-Cyano-2-phenyl-1-propoxycarbonyl-4H-quinolizin-4-one]
inhibition at 10 µg/mL [1]: 22%
inhibition at 10 µg/mL [2]: 57%

COC(=O)c1c(-c2ccccc2)c(C#N)c(=O)n2ccccc12 [Compound S-11, 3-Cyano-1-methoxycarbonyl-2-phenyl-4H-quinolizin-4-one]
inhibition at 40 µg/mL [1]: 19%
inhibition at 40 µg/mL [2]: 46%

CCOC(=O)c1c(-c2ccc(F)cc2)c(C#N)c(=O)n2ccccc12 [Compound S-12, 3-Cyano-1-ethoxycarbonyl-2-(4-fluorophenyl)-4H-quinolizin-4-one]
inhibition at 20 µg/mL [1]: 8%
inhibition at 20 µg/mL [2]: 50%

CCOC(=O)c1c(-c2ccc(C)c(F)c2)c(C#N)c(=O)n2ccccc12 [Compound S-13, 3-Cyano-1-ethoxycarbonyl-2-(3-fluoro-4-methylphenyl)-4H-quinolizin-4-one]
inhibition at 40 µg/mL [1]: 26%
inhibition at 40 µg/mL [2]: 64%

CCOC(=O)c1c(-c2cc(OC)c(OC)c(OC)c2)c(C#N)c(=O)n2ccccc12 [Compound S-19, 3-Cyano-1-ethoxycarbonyl-2-(3,4,5-trimethoxyphenyl)-4H-quinolizin-4-one]
inhibition at 20 µg/mL [1]: 8%
inhibition at 20 µg/mL [2]: 48%

CCOC(=O)c1c(-c2ccc([N+](=O)[O-])cc2)c(C#N)c(=O)n2ccccc12 [Compound S-20, 3-Cyano-1-ethoxycarbonyl-2-(4-nitrophenyl)-4H-quinolizin-4-one]
inhibition at 10 µg/mL [1]: 9%
inhibition at 10 µg/mL [2]: 49%

CCOC(=O)c1c(-c2ccc(SC)cc2)c(C#N)c(=O)n2ccccc12 [Compound S-25, 3-Cyano-1-ethoxycarbonyl-2-(4-methylthiophenyl)-4H-quinolizin-4-one]
inhibition at 20 µg/mL [1]: -4%
inhibition at 20 µg/mL [2]: 61%

CCOC(=O)c1c(-c2cccc(OC)c2OC)c(C#N)c(=O)n2ccccc12 [Compound S-28, 3-Cyano-2-(2,3-dimethoxyphenyl)-1-ethoxycarbonyl-4H-quinolizin-4-one]
inhibition at 2.5 µg/mL [1]: 14%
inhibition at 2.5 µg/mL [2]: 64%

CCOC(=O)c1c(-c2cc(OC)cc(OC)c2)c(C#N)c(=O)n2ccccc12 [Compound S-29, 3-Cyano-2-(3,5-dimethoxyphenyl)-1-ethoxycarbonyl-4H-quinolizin-4-one]
inhibition at 40 µg/mL [1]: 17%
inhibition at 40 µg/mL [2]: 67%

CCOC(=O)c1c(-c2ccc(O)cc2)c(C#N)c(=O)n2ccccc12 [Compound S-30, 3-Cyano-1-ethoxycarbonyl-2-(4-hydroxyphenyl)-4H-quinolizin-4-one]
inhibition at 40 µg/mL [1]: -20%
inhibition at 40 µg/mL [2]: 43%

CCOC(=O)c1c(-c2ccc(O)c(O)c2)c(C#N)c(=O)n2ccccc12 [Compound S-31, 3-Cyano-2-(3,4-dihydroxyphenyl)-1-ethoxycarbonyl-4H-quinolizin-4-one]
inhibition at 20 µg/mL [1]: -7%
inhibition at 20 µg/mL [2]: 54%

CCOC(=O)c1c(-c2ccc(O)c(OC)c2)c(C#N)c(=O)n2ccccc12 [Compound S-32, 3-Cyano-1-ethoxycarbonyl-2-(4-hydroxy-3-methoxyphenyl)-4H-quinolizin-4-one]
inhibition at 20 µg/mL [1]: -9%
inhibition at 20 µg/mL [2]: 53%

CCOC(=O)c1c(-c2ccc(OC)c(O)c2)c(C#N)c(=O)n2ccccc12 [Compound S-33, 3-Cyano-1-ethoxycarbonyl-2-(3-hydroxy-4-methoxyphenyl)-4H-quinolizin-4-one]
inhibition at 40 µg/mL [1]: 5%
inhibition at 40 µg/mL [2]: 58%

CCOC(=O)c1c(N2CCCCC2)c(C#N)c(=O)n2ccccc12 [Compound S-35, 3-Cyano-1-ethoxycarbonyl-2-piperidino-4H-quinolizin-4-one]
inhibition at 5 µg/mL [1]: 17%
inhibition at 5 µg/mL [2]: 30%

N#Cc1c(N2CCCCC2)c(C(=O)OCCCc2ccccc2)c2ccccn2c1=O [Compound S-36, 3-Cyano-1-(3-phenylpropoxycarbonyl)-2-piperidino-4H-quinolizin-4-one]
inhibition at 5 µg/mL [1]: -4%
inhibition at 5 µg/mL [2]: 39%

N#Cc1c(N2CCCC2)c(C(=O)OCCCc2ccccc2)c2ccccn2c1=O [Compound S-38, 3-Cyano-1-(3-phenylpropoxycarbonyl)-2-(1-pyrrolidinyl)-4H-quinolizin-4-one]
inhibition at 1 µg/mL [1]: 1%
inhibition at 1 µg/mL [2]: 68%

CCOC(=O)c1c(N2CCN(CCO)CC2)c(C#N)c(=O)n2ccccc12 [Compound S-39, 3-Cyano-1-ethoxycarbonyl-2-[4-(2-hydroxyethyl)-piperazin-1-yl]-4H-quinolizin-4-one]
inhibition at 40 µg/mL [1]: 17%
inhibition at 40 µg/mL [2]: 63%

CCOC(=O)c1c(N2CCN(C=O)CC2)c(C#N)c(=O)n2ccccc12 [Compound S-40, 3-Cyano-1-ethoxycarbonyl-2-(4-formylpiperazin-1-yl)-4H-quinolizin-4-one]
inhibition at 40 µg/mL [1]: 9%
inhibition at 40 µg/mL [2]: 34%

N#Cc1c(N2CCN(C=O)CC2)c(C(=O)OCCCc2ccccc2)c2ccccn2c1=O [Compound S-41, 3-Cyano-2-(4-formylpiperazin-1-yl)-1-(3-phenylpropoxycarbonyl)-4H-quinolizin-4-one]
inhibition at 2.5 µg/mL [1]: 9%
inhibition at 2.5 µg/mL [2]: 75%

CCOC(=O)c1c(N2CCN(C)CC2)c(C#N)c(=O)n2ccccc12 [Compound S-42, 3-Cyano-1-ethoxycarbonyl-2-(4-methylpiperazin-1-yl)-4H-quinolizin-4-one]
inhibition at 40 µg/mL [1]: 19%
inhibition at 40 µg/mL [2]: 63%

CN1CCN(c2c(C#N)c(=O)n3ccccc3c2C(=O)OCCCc2ccccc2)CC1 [Compound S-43, 3-Cyano-2-(4-methylpiperazin-1-yl)-1-(3-phenylpropoxycarbonyl)-4H-quinolizin-4-one]
inhibition at 2.5 µg/mL [1]: 1%
inhibition at 2.5 µg/mL [2]: 65%

N#Cc1c(N2CCC(Cc3ccccc3)CC2)c(C(=O)OCCCc2ccccc2)c2ccccn2c1=O [Compound S-45, 2-(4-Benzylpiperidino)-3-cyano-1-(3-phenylpropoxycarbonyl)-4H-quinolizin-4-one]
inhibition at 1 µg/mL [1]: 16%
inhibition at 1 µg/mL [2]: 55%

N#Cc1c(N2CCOCC2)c(C(=O)OCCCc2ccccc2)c2ccccn2c1=O [Compound S-49, 3-Cyano-2-morpholino-1-(3-phenylpropoxycarbonyl)-4H-quinolizin-4-one]
inhibition at 2.5 µg/mL [1]: 21%
inhibition at 2.5 µg/mL [2]: 61%

N#Cc1c(N2CCN(CCO)CC2)c(C(=O)OCCCc2ccccc2)c2ccccn2c1=O [Compound S-54, 3-Cyano-2-[4-(2-hydroxyethyl)piperazin-1-yl]-1-(3-phenylpropoxycarbonyl)-4H-quinolizin-4-one]
inhibition at 5 µg/mL [1]: 4%
inhibition at 5 µg/mL [2]: 59%

CCOC(=O)c1c(N2CCN(CC(=O)N3CCOCC3)CC2)c(C#N)c(=O)n2ccccc12 [Compound S-55, 3-Cyano-1-ethoxycarbonyl-2-(4-morpholinocarbonylmethylpiperazin-1-yl)-4H-quinolizin-4-one]
inhibition at 40 µg/mL [1]: -4%
inhibition at 40 µg/mL [2]: 36%

N#Cc1c(N2CCN(CC(=O)N3CCOCC3)CC2)c(C(=O)OCCCc2ccccc2)c2ccccn2c1=O [Compound S-56, 3-Cyano-2-(4-morpholinocarbonylmethylpiperazin-1-yl)-1-(3-phenylpropoxycarbonyl)-4H-quinolizin-4-one]
inhibition at 2.5 µg/mL [1]: 1%
inhibition at 2.5 µg/mL [2]: 37%
